The values below are quoted from earlier work in patent publication US6107305A, “Use of pyrazolo [3,4-b] pyridine as cyclin dependent kinase inhibitors” (Bristol-Myers Squibb Company, priority 1998, dated 2000).

One series has as its system apoptosis. The note with it: J. Cell Sci., 108, 2897 (1995).

Take `CN1CC[C@H](c2c(O)cc(O)c3c(=O)cc(-c4ccccc4Cl)oc23)[C@H](O)C1` [flavopiridol]: the “effect of sequence of administration with anticancer agents on cytotoxic activity” value in the series with cytotoxic activity is “affected by the sequence of administration with anticancer agents”.

For the molecule `Cn1cnc2c(NCc3ccccc3)nc(NCCO)nc21` [olomucine], in the series with apoptosis, the “synergism with known cytotoxic agents in inducing apoptosis” value was “act synergistically with known cytotoxic agents in inducing apoptosis”.
